Results as given in patent US11773063B1, “Pharmaceutically acceptable salts and compositions thereof” (priority 2022, dated 2023).
Counter-ions that a name gives are not always drawn. Like-named read-outs stand apart in the source and are kept apart here.

Key:
[1] = Dynamic Vapor Sorption (DVS), salt screen and scale-up salts; assay type: physicochemical
Procedure: Dynamic Vapor Sorption (DVS)
DVS analyses were performed on TA Instrument DVS Q5000. Samples were added to a pre-tared metallised quartz crucible and run at 25° C. from 40% RH to 90% RH, down to zero and back to 40%. This cycle was repeated in increments of 10% RH.

[2] = Storage at 40° C./75% RH for 1 week, XRPD (salts produced during scale-up); assay type: physicochemical; settings: salt produced during scale-up
Procedure: Oxalate Salt HPLC Purity, DVS, Stability at 40° C./75% RH (XRPD and HPLC), PSD/Morphology Assessment

[3] = assay type: physicochemical; settings: 40° C./75% RH, three days
Procedure: Physical Stability of Salts
Physical stability stress tests were conducted on generated crystalline salts at controlled temperature and relative humidity. The powder samples were stored at 40° C./75% RH for three days. After this time samples were analysed by XRPD to see whether the physical state of salts changed during the storage.

[4] = Solubility assessment in four different media; assay type: physicochemical; settings: for pH after addition of 1.0 ml media at 37° C. / Observation: 250 mg per vial; for Observation: 1.0 ml media at 37° C.; for solubility: 37 °C, aqueous buffer, thermodynamic from solid, four different media
Procedure: Solubility assessments of 5-MeO-DMT oxalate, hydrobromide fumarate and benzoate were performed in four different media: […]

[5] = Thermo-Gravimetric Analysis (TGA), thermal stability; settings: for thermal stability up to (TGA): nitrogen
Procedure: Thermo—Gravimetric Analysis (TGA)
TGA thermograms were obtained with a TA Instrument Discovery 550 in Al pans. The heating rate used was 10° C./min linear ramp from 25 to 400° C. with a nitrogen purging at a rate of 60 ml/min. TGA thermograms were analysed using TRIOS software.

[6] = Oxalate salt solubility by HPLC; assay type: physicochemical; settings: for solubility: thermodynamic from solid, by HPLC, mother liquors adjusted to the desired pH, read-out: Solubility (mg/ml) of free base
Procedure: The calibration curve of the free base was prepared between 0.031-0.500 mg/ml and can be seen in FIG. 172.
Oxalate Salt Solubility by HPLC
Mother liquors were adjusted to the desired pH before HPLC quantification.

[7] = Polymorph assessment, slurry maturation in 10 solvents between 5 and 50° C.; assay type: physicochemical; settings: 10 solvents, 5-50° C., 24 hours
Procedure: (§1) DR-2186-45-01 (20 mg, PHO Pattern 1+Extra Peaks) was weighed into 10 HPLC vials. To this was added 10 volumes (200 μL) of solvent, a stirrer bar and the samples heated to 50° C. on a Polar Bear heat/cool block (400 RPM). After holding at 50° C. for 30 minutes and observation was made and the samples cooled to 5° C. where a further observation was made. All samples were than subjected to heat/cool cycles between 5 and 50° C. holding for 4 hours at each temperature for 24 hours.
A polymorph assessment was carried out in 10 different solvents using PHO Pattern 1+extra peaks as the input material, maturating a slurry of the salt between 5° C. and 50° C. for 24 hours. The results of the XRPD analysis of the samples can be seen in FIG. 118. The isolated solid was the same as the input material in all cases other than MeOH.
as §1, with “DR-2186-46-01” for “DR-2186-45-01”, “TAR” for “PHO”, “1)” for “1+Extra Peaks)”
A polymorph assessment was carried out in 10 different solvents, maturating a slurry of the salt between 5° C. and 50° C. for 24 hours.

[8] = Dissolution in hot MeOH (phosphate re-crystallisation); assay type: physicochemical; set-up: key to Observation (sample dissolution in hot MeOH): ✓ = solution; ✓/X = turbid solution; X = suspension
[9] = DVS double-cycle experiment (Example 3); assay type: physicochemical
[10] = Storage at 40° C./75% RH and 25° C./97% RH for 7 days, XRPD and HPLC (Example 3); assay type: physicochemical
Procedure: FIG. 128. XRPD diffractogram overlay of 5-MeO-DMT Phosphate Pattern 1 before and after storage at 25° C./97% RH and 40° C./75% RH for 7 days.
FIG. 139. XRPD diffractogram overlay of 5-MeO-DMT Tartrate Pattern 1 before and after storage at 25° C./97% RH and 40° C./75% RH for 7 days.
The sample is classed as slightly hygroscopic with a total reversible mass change of 0.3 wt. % between 0-90% RH. The DVS isotherm and DVS kinetic plot can be seen in FIGS. 124 and 125, respectively. The solid form was unchanged after a double-cycle experiment, the XRPD analysis confirming this can be seen in FIG. 126.
The sample is classed as slightly hygroscopic with a total reversible mass change of 0.6 wt. % between 0-90% RH (FIG. 135). The solid-form was unchanged after the double-cycle experiment (FIG. 136).

## COc1ccc2[nH]cc(CCN(C)C)c2c1 [Fumarate salt, 5-MeO-DMT fumarate]
[1]
  change of crystalline form during the DVS experiment (DVS / post-DVS XRPD): a change in crystalline form occurred
[1]; DVS, salt produced during scale-up
  mass difference between 40% RH and 0% RH: ~2.84%
[2]
  crystalline form after storage (XRPD): mixture of form/pattern 1 and form/pattern 2
[3]
  crystalline form after storage (XRPD): some additional peaks were also observed
[4]; SNF
  pH after addition of 1.0 ml media at 37° C.: 5.14
  Observation: Clear solution
[4]; four media: SNF, pH 1.2, pH 4.5 and pH 6.8 media
  solubility: ≥ 250 mg/mL
[4]; pH 1.2 buffer
  pH after addition of 1.0 ml media at 37° C.: 5.24
  Observation: Clear solution
[4]; pH 4.5 buffer
  pH after addition of 1.0 ml media at 37° C.: 5.31
  Observation: Clear solution
[4]; pH 6.8 buffer
  pH after addition of 1.0 ml media at 37° C.: 5.79
  Observation: Clear solution
[5]; 10° C./min
  thermal stability up to (TGA): 150 °C

## Br.COc1ccc2[nH]cc(CCN(C)C)c2c1 [Hydrobromide salt, 5-MeO-DMT hydrobromide]
[1]
  change of crystalline form during the DVS experiment (DVS / post-DVS XRPD): no change in crystalline form
[1]; DVS, 25° C.
  hygroscopicity class: non-hygroscopic
[2]
  crystalline form after storage (XRPD): no change in crystalline form
[3]
  crystalline form after storage (XRPD): No change in crystalline form
[4]
  solubility compared to other salts: high solubility
  solubility: ≥ 250 mg/mL
[4]; SNF
  pH after addition of 1.0 ml media at 37° C.: 8.13
  Observation: Clear solution
[4]; pH 1.2 buffer
  pH after addition of 1.0 ml media at 37° C.: 8.09
  Observation: Clear solution
[4]; pH 4.5 buffer
  pH after addition of 1.0 ml media at 37° C.: 7.65
  Observation: Clear solution
[4]; pH 6.8 buffer
  pH after addition of 1.0 ml media at 37° C.: 7.82
  Observation: Clear solution
[5]; 10° C./min
  thermal stability up to (TGA): 220 °C
[5]; Ramp 10° C./min to 400° C., salt produced during scale-up
  temperature with 95% of weight remaining (TGA): 269 °C

## COc1ccc2[nH]cc(CCN(C)C)c2c1 [Oxalate salt, 5-MeO-DMT oxalate]
[6]
  form of isolated solids after solubility experiment (XRPD): no change in form
[6]; fassgf or other biorelevant, SNF
  solubility: 20.2 mg/mL
[6]; pH 4.5 medium, aqueous buffer, pH 4.5
  solubility: 35.5 mg/mL
[6]; pH 6.8 medium, aqueous buffer, pH 6.8
  solubility: 26.9 mg/mL
[1]
  change of crystalline form during the DVS experiment (DVS / post-DVS XRPD): no change in the crystalline form
[2]
  crystalline form after storage (XRPD): no change in crystalline form

## COc1ccc2[nH]cc(CCN(C)C)c2c1 [DR-2186-45-01, 5-MeO-DMT phosphate]
[7]; listed as PHO Pattern 1+Extra Peaks
  dissolution in 10 volumes of solvent: Non of the samples completely dissolved
[8]; 5 volumes of MeOH, 50° C., 1.00 g PHO Pattern 1+extra peaks
  Observation (sample dissolution in hot MeOH): X
[8]; 8 volumes of MeOH, 50° C.
  Observation (sample dissolution in hot MeOH): X
[8]; 12 volumes of MeOH, 50° C.
  Observation (sample dissolution in hot MeOH): X
[8]; 16 volumes of MeOH, 50° C.
  Observation (sample dissolution in hot MeOH): X
[8]; 18 volumes of MeOH, 50° C.
  Observation (sample dissolution in hot MeOH): X
[8]; 18 volumes of MeOH, 60° C.
  Observation (sample dissolution in hot MeOH): X
[8]; 20 volumes of MeOH, 60° C., 150 RPM, Easymax vessel overhead stirring
  Observation (sample dissolution in hot MeOH): X
[8]; 20 volumes of MeOH, 60° C., scintillation vial
  Observation (sample dissolution in hot MeOH): X
[8]; 22 volumes of MeOH, 60° C., Easymax vessel overhead stirring
  Observation (sample dissolution in hot MeOH): X
[8]; 24 volumes of MeOH, 60° C., Easymax vessel overhead stirring
  Observation (sample dissolution in hot MeOH): ✓/X
[8]; 25 volumes of MeOH, 60° C., 250 RPM, Easymax vessel overhead stirring
  Observation (sample dissolution in hot MeOH): ✓
[8]; MeOH at 60° C., 1.00 g
  volumes of MeOH at which dissolution was achieved: 25 volumes

## COc1ccc2[nH]cc(CCN(C)C)c2c1 [Tartrate Pattern 1, 5-MeO-DMT tartrate]
[9]
  solid form after double-cycle DVS experiment (XRPD): unchanged
[9]; DVS
  total reversible mass change between 0-90% RH: 0.6 wt. %
[9]; DVS 0-90% RH, Example 3
  hygroscopicity class: slightly hygroscopic (Pharmaceuticals that pick up between 0.2% and 2.0% moisture at 80% RH are considered slightly hygroscopic)
[9]; from 0-90% RH
  GVS total mass change as mol eq. water: RH (0.12 mol eq. of water) and is reversible with mol eq. water
[9]; from 0-90% RH, double cycle
  GVS total mass change: Total mass change of 0.58 wt. % from 0-90%
[9]; post GVS
  Solid form of the material after GVS by XRPD: unchanged by XRPD.
[7]
  dissolution in 10 volumes of solvent: No dissolution was observed
[10]; 25° C./97% RH
  change by XRPD or HPLC after storage: no change
[10]; 40° C./75% RH
  Static Storage 7 days - 40° C./75% RH, XRPD: KRPD-TAR Pattern 1
  change by XRPD or HPLC after storage: no change
[10]; 40° C./75% RH, HPLC purity
  Static Storage 7 days - 40° C./75% RH, HPLC: HPLC-97.8%
[5]
  TGA mass loss before decomposition: No mass loss observed in sample before
[5]; 10° C./min
  start of decomposition / complete mass loss (TGA): 175 °C
